One molecule from patent US4594340A, “25,26-dehydro-1α,24R-dihydroxycholecalciferol and 25,26-dehydro-1α,24S-dihydroxycholecalciferol and the epimeric mixture” (Hoffmann-La Roche Inc., priority 1984, dated 1986) can be followed below.

In one test the test system is HL-60 cells. The test can be described thus: Differentiation of HL-60 cells by nitroblue tetrazolium (NBT) reduction. Type of test: cell-based, human (patient). The following applies: Homo sapiens, 96 h; HL-60 cells, NBT test; read-out: HL-60 Test Differentiation NBT Test ED50. Here is the method: Cultures of HL-60 cells were established in the absence (control) or presence of various concentrations of the test compound. […] Proliferation was assessed by directly enumerating the increased number of tumor cells resulting from incubation. Viability was determined by dye exclusion technique to learn whether any of the compounds were lethal to cultured HL-60 cells. Cellular differentiation was evaluated by determining the number of cells which had acquired the enzymes necessary to support a respiratory burst and the functional ability to phagocytose (bind/internalize) particulate material from their environment; both activities being characteristic of mature macrophages and granulocytes,
Experimental compounds were dissolved in sufficient ethanol to yield stock solutions of 1×10^-2 molar. Reduced lighting was employed when working with compounds and stock solutions were stored in the dark at -20° in an argon atmosphere. Compounds were diluted with tissue culture medium and added to flasks containing HL-60 cells to achieve the final concentrations described in each experiment.
The promyelocytic (HL-60) tumor cell line was derived from a patient with acute promyelocytic leukemia. HL-60 cells were maintained in liquid culture by serial weekly passage in tissue culture medium. In any experiment, three replicate flasks were incubated without compound (control) or in the presence of varying concentrations of compound. […]
Quantitation of differentiated cells was done by the biochemical method of nitroblue tetrazolium (NBT) reduction. Sufficient cells were pooled from replicate cultures, centrifuged at 220×g, washed once with serum-free tissue culture medium, and resuspended to 1×10^6 cells per ml in Ca^++ --Mg^++ -deficient phosphate buffered saline (prepared by supplementing Ca^++ --Mg^++ -free phosphate buffered saline (PBS) to 10% v/v with heat-inactivated fetal bovine serum). Nitroblue tetrazolium was dissolved at 1 mg per ml in Ca^++ --Mg^++ -deficient PBS with gentle heating and mixing. Tetradecanoyl phorbol acetate (TPA) was dissolved at 1 mg per ml in ethanol and stored at -20° C. Just prior to use, a working solution of TPA was prepared by diluting the stock concentration 100-fold with Ca^++ --Mg^++ -deficient PBS. The test was done in 12×75 mm tubes by adding 0.5 ml Ca^++ --Mg^++ -deficient PBS, 1.0 ml of HL-60 cells, 0.5 ml of NBT solution, and 0.02 ml of the working TPA solution. After mixing, the tubes were incubated in a 37° water bath for 25 minutes then transferred to ice. Undifferentiated and differentiated cells present in any sample were determined microscopically by surveying 200-400 cells per sample or by cytofluorograph by surveying greater than 30,000 cells. Cells without pigmented granules (clear cells) were judged to be undifferentiated while those containing greater than 3 blue-black formazan granules were scored as differentiated. […] Results are expressed as the percentage of differentiated cells present in any sample as calculated according to the formula: [formula]

The nature of test [1]: Antirachitogenic increase in tibia ash in chicks on vitamin D-deficient diet. To be noted: 27 ng, orally, 21 consecutive days. It is filed as in vivo, chick (White Leghorn cockerels). Here is the method: **Oneday-old White Leghorn cockerels were placed on a vitamin Ddeficient
diet which contained 1% calcium and 0.7% phosphorus and were housed under
ultravioletfree lighting (General Electric F40G0 gold fluorescent lights)
The test compound was dissolved in propylene glycol and administered
orally in a volume of 0.2 ml/day for 21 consecutive days. Controls were
treated with vehicle alone. Chicks were autopsied on the day after the […]

Each structure is given as a SMILES string.

`C=C1/C(=C\C=C2/CCC[C@]3(C)[C@@H]([C@H](C)CCCC(C)(C)O)CC[C@@H]23)C[C@@H](O)C[C@@H]1O` [1α,25-Dihydroxycholecalciferol, reference compound]: the EC50 with HL-60 cells was determined as 12 nM. Also, in test [1], the “Antirachitogenic Increase in Tibia Ash in Chicks” value stood at 61%.
